Tests used:
[1] = tested on: cultured cerebral cortex cells; assay: Effect on glutamate-induced neurotoxicity of cultured cerebral cortex cell (trypan blue survival); type: cell-based; conditions: test substance 10 μM, 1 h pre-incubation, then glutamic acid 500 μM for 1 h; percentage of living (trypan blue unstained) cells; sham 88.79, glutamic acid alone 26.72
Experimental: Effect of Atisane Derivative on Glutamate-induced Neurotoxicity of Cultured Cerebral Cortex Cell
Effects of the compounds according to the present invention on survival of cells were studied in the following manners.
(1) After dissolving the compound according to the present invention (test compound) in a small amount of methanol, 2.0 mL serum-free normal medium (Eagle's MEM medium raw powder 9.4 g; NaHCO3 2.0 g; L-glutamine 0.29 g; glucose 1.0 g; and HEPES 2.38 g are dissolved in purified water so that the final volume is 1000 mL) was added so as to make the concentration at 10 μM. After mixing well by vortex, the sample was used for the following bioassay. (2) In Eagle liquid at 37° C., cultured cerebral cortex cells were incubated in the medium containing the test sample (1) for 1 hour, and glutamic acid was added to the medium. After incubating for another 1 hour, the culture was stained with 1.5% trypan blue solution for 10 minutes. […] Using this property, in the present test, the number of cells were counted while determining the cells not having stained by trypan blue as living cells and the cells […] as dead cells. […] More than 200 cells were counted per one cover slip, and a percentage of number of living cells with respect to the total number of counted cells was calculated as survival. […]

[2] = tested on: cultured cerebral cortex cells; assay: Effect on nitrogen monoxide (NO)-induced neurotoxicity of cultured cerebral cortex cell (trypan blue survival); type: cell-based; conditions: test substance 10 μM simultaneously with S-nitrosocysteine 100 μM; percentage of living cells; sham 91.92, S-nitrosocysteine alone 17.30
Experimental: Effect of Atisane Derivative on Nitrogen Monoxide (NO)-induced Neurotoxicity of Cultured Cerebral Cortex Cell
(1) After dissolving the compound according to the present invention (test compound) in a small amount of methanol, 2.0 mL serum-free normal medium (Eagle's MEM medium raw powder 9.4 g; NaHCO3 2.0 g; […]; glucose 1.0 g; and HEPES 2.38 g are dissolved in purified water so that the final volume is 1000 mL) was added to make the concentration at 10 μM. After mixing well by vortex, the sample was used for the following bioassay. (2) In Eagle liquid at 37° C., cultured cerebral cortex cells were incubated in the medium containing S-nitrosocysteine for 1 hour. At this time, the test sample (1) was treated simultaneously with S-nitrosocysteine. After incubating for another 1 hour, the culture was stained with 1.5% trypan blue solution for 10 minutes. After completion of the staining, cells were fixed in ice-cooled 10% neutral-buffered formalin solution, rinsed with saline, and numbers of living cells and dead cells were counted. The test was conducted using 5 cover slips for every drug treatment, and one group contained 5 cases. More than 200 cells were counted per one cover slip, and a percentage of number of living cells with respect to the total number of counted cells was calculated as survival. (3) Results

C[S+]([O-])C[C@H]1[C@H]2CC[C@@]3(CC[C@H]4[C@@](C)(CCC[C@@]4(C)C(=O)O)[C@@H]3C2)[C@@H]1O (mixture of isomers) [Serofendic acid isomers (1), (2) (approx. 1:2) mixture, ent-15β-Hydroxy-17-methylsulfinyl-16α-atisane-19-oic acid]
Survival of cell [1]: 65.92%
Survival of cell [2]: 76.02%

Source: US7211589B2, “Atisane compounds and use thereof” (Eisai R&D Management Co., Ltd., priority 2001, dated 2007)
